From patent US9499537B2, “Antiviral pyrrolopyridine derivatives and method for preparing the same” (KOREA RESEARCH INSTITUTE OF CHEMICAL TECHNOLOGY, priority 2011, dated 2016) come the findings set out here.

Molecules are shown by their SMILES. Bounds are passed on as bounds.

Tested on in one data set: not given
Assay: not given
Conditions: not given
`Cc1nc2c(c(C)c(C)n2Cc2cn[nH]c2)c(-c2ccc(Cl)cc2)c1[C@H](OC(C)(C)C)C(=O)O` [Example 46, (S)-2-(1-((1H-Pyrazol-4-yl)methyl)-4-(4-chlorophenyl)-2,3,6-trimethyl-1H-pyrrolo[2,3-b]pyridin-5-yl)-2-(tert-butoxy)acetic acid] showed a melting point greater than 230 °C.

Turning to `Cc1nc2c(c(C)c(C)n2Cc2cc[nH]n2)c(-c2ccc(Cl)cc2)c1[C@H](OC(C)(C)C)C(=O)O` [Example 45, (S)-2-(1-((1H-pyrazol-3-yl)methyl)-4-(4-chlorophenyl)-2,3,6-trimethyl-1H-pyrrolo[2,3-b]pyridin-5-yl)-2-(tert-butoxy)acetic acid], the melting point turned out to be 140 °C.

A further data set deals with MT-4 cells. Nature of the data set: Cytotoxicity test in MT-4 cells (MTT method). Type of data set: cell-based. The settings on record: human. On the procedure: In order to look into the HIV-1 inhibition effects of the compound of the present invention, an in vitro test for HIV-1 inhibition effects was carried out as follows according to a known method (H. Tanaka et al., J. Med. Chem., 1991, 34, 349). MT-4 cells were used as host cells, and the degree of the compound of the present invention inhibiting the cytotoxicity of the virus-infected MT-4 cells was investigated.
First, MT-4 cells were diffused at a concentration of 1×10^4 cell/well to a culture medium, and HIV-1 was inoculated so that the concentration was 500 TCI50 (concentration at which 50% of the cell is infected)/well. Immediately after the inoculation, the cell dispersion was transferred in 100 μL each to a flat microtiter plate in which the sample of the compound of the present invention was placed. The sample was incubated for approximately for 4 to 5 days at […], and the virus suppression effect was determined using an MTT method. In addition, the cytotoxicity was also determined by measuring the survivability of the experimentally virus-infected cells using an MTT method. As a comparative compound, azidothymidine (AZT) and raltegravir were used.
On to `Cc1nc2c(c(C)c(C)n2Cc2cn[nH]c2)c(-c2ccc(Cl)cc2)c1[C@H](OC(C)(C)C)C(=O)O` [Example 46, (S)-2-(1-((1H-Pyrazol-4-yl)methyl)-4-(4-chlorophenyl)-2,3,6-trimethyl-1H-pyrrolo[2,3-b]pyridin-5-yl)-2-(tert-butoxy)acetic acid], for which the “CC60 (μM) ** : concentration at 50% cell damage with respect to MT-4 cells” value is 20.89 µM.

For `Cc1nc2c(c(C)c(C)n2CCC(C)C)c(-c2ccc(Cl)cc2)c1C(OC(C)(C)C)C(=O)O` (stereo not shown) [Example 18, 2-Tert-butoxy-2-(4-(4-chlorophenyl)-1-isopentyl-2,3,6-trimethyl-1H-pyrrolo[2,3-b]pyridin-5-yl)acetic acid], the “CC60 (μM) ** : concentration at 50% cell damage with respect to MT-4 cells” value was 17.32 µM.

As to `Cc1nc2c(ccn2C)c(-c2ccc(Cl)cc2)c1[C@H](OC(C)(C)C)C(=O)O` [Example 34, (S)-2-Tert-butoxy-2-(4-(4-chlorophenyl)-1,6-dimethyl-1H-pyrrolo[2,3-b]pyridin-5-yl)acetic acid], the “CC60 (μM) ** : concentration at 50% cell damage with respect to MT-4 cells” value is 78 µM.

Consider `Cc1nc2c(c(C)c(C)n2C(C)C)c(-c2ccc(Cl)cc2)c1C(OC(C)(C)C)C(=O)O` (stereo not shown) [Example 21, 2-Tert-butoxy-2-(4-(4-chlorophenyl)-1-isopropyl-2,3,6-trimethyl-1H-pyrrolo[2,3-b]pyridin-5-yl)acetic acid], for which the “CC60 (μM) ** : concentration at 50% cell damage with respect to MT-4 cells” value was found to be 24.51 µM.

For `C=CCn1c(C)c(C)c2c(-c3ccc(Cl)cc3)c(C(OC(C)(C)C)C(=O)O)c(C)nc21` (stereo not shown) [Example 3, 2-(1-Allyl-4-(4-chlorophenyl)-2,3,6-trimethyl-1H-pyrrolo[2,3-b]pyridin-5-yl)-2-tert-butoxyacetic acid], the “CC60 (μM) ** : concentration at 50% cell damage with respect to MT-4 cells” value is 26.19 µM.

With `Cc1nc2c(c(C)c(C)n2Cc2cocn2)c(-c2ccc(Cl)cc2)c1[C@H](OC(C)(C)C)C(=O)O` [Example 56, (S)-2-(Tert-butoxy)-2-(4-(4-chlorophenyl)-2,3,6-trimethyl-1-(oxazol-4-ylmethyl)-1H-pyrrolo[2,3-b]pyridin-5-yl)acetic acid], the “CC60 (μM) ** : concentration at 50% cell damage with respect to MT-4 cells” value turned out to be 24.56 µM.

As to `Cc1nc2c(c(C)c(C)n2Cc2ccnc(F)c2)c(-c2ccc(Cl)cc2)c1[C@H](OC(C)(C)C)C(=O)O` [Example 66, (S)-2-(Tert-butoxy)-2-(4-(4-chlorophenyl)-1-((2-fluoropyridin-4-yl)methyl)-2,3,6-trimethyl-1H-pyrrolo[2,3-b]pyridin-5-yl)acetic acid], the “CC60 (μM) ** : concentration at 50% cell damage with respect to MT-4 cells” value came out at 14.55 µM.

As for `CCCn1c(C)c(C)c2c(-c3ccc(Cl)cc3)c(C(OC(C)(C)C)C(=O)O)c(C)nc21` (stereo not shown) [Example 15, 2-Tert-butoxy-2-(4-(4-chlorophenyl)-2,3,6-trimethyl-1-propyl-1H-pyrrolo[2,3-b]pyridin-5-yl)acetic acid], the “CC60 (μM) ** : concentration at 50% cell damage with respect to MT-4 cells” value stood at 20.7 µM.

On to `Cc1nc2c(c(C)c(C)n2CC2CCC2)c(-c2ccc(Cl)cc2)c1[C@H](OC(C)(C)C)C(=O)O` [Example 48, (S)-2-(Tert-butoxy)-2-(4-(4-chlorophenyl)-1-(cyclobutylmethyl)-2,3,6-trimethyl-1H-pyrrolo[2,3-b]pyridin-5-yl)acetic acid], for which the “CC60 (μM) ** : concentration at 50% cell damage with respect to MT-4 cells” value came out at 14.22 µM.

On to `Cc1nc2c(c(C)c(C)n2C)c(-c2ccc(Cl)cc2)c1[C@H](OC(C)(C)C)C(=O)O` [Example 26, (S)-2-Tert-butoxy-2-(4-(4-chlorophenyl)-1,2,3,6-tetramethyl-1H-pyrrolo[2,3-b]pyridin-5-yl)acetic acid], for which the “CC60 (μM) ** : concentration at 50% cell damage with respect to MT-4 cells” value amounted to 55.84 µM.

For the compound `Cc1nc2c(c(C)c(C)n2Cc2cccnc2)c(-c2ccc(Cl)cc2)c1[C@H](OC(C)(C)C)C(=O)O` [Example 53, (S)-2-(Tert-butoxy)-2-(4-(4-chlorophenyl)-2,3,6-trimethyl-1-(pyridin-3-ylmethyl)-1H-pyrrolo[2,3-b]pyridin-5-yl)acetic acid], the “CC60 (μM) ** : concentration at 50% cell damage with respect to MT-4 cells” value came out at 53.33 µM.

Turning to `Cc1nc2c(c(C)c(C)n2CCC#N)c(-c2ccc(Cl)cc2)c1C(OC(C)(C)C)C(=O)O` (stereo not shown) [Example 23, 2-Tert-butoxy-2-(4-(4-chlorophenyl)-1-(2-cyanoethyl)-2,3,6-trimethyl-1H-pyrrolo[2,3-b]pyridin-5-yl)acetic acid], the “CC60 (μM) ** : concentration at 50% cell damage with respect to MT-4 cells” value came out at 25.49 µM.

Consider `Cc1nc2c(c(C)c(C)n2CCN(C)C)c(-c2ccc(Cl)cc2)c1[C@H](OC(C)(C)C)C(=O)O` [Example 65, (S)-2-(Tert-butoxy)-2-(4-(4-chlorophenyl)-1-(2-dimethylaminoethyl)-2,3,6-trimethyl-1H-pyrrolo[2,3-b]pyridin-5-yl)acetic acid], for which the “CC60 (μM) ** : concentration at 50% cell damage with respect to MT-4 cells” value was 70.86 µM.

As to `Cc1nc2c(c(C)c(C)n2Cc2ccc(F)nc2)c(-c2ccc(Cl)cc2)c1[C@H](OC(C)(C)C)C(=O)O` [Example 67, (S)-2-(Tert-butoxy)-2-(4-(4-chlorophenyl)-1-((6-fluoropyridin-3-yl)methyl)-2,3,6-trimethyl-1H-pyrrolo[2,3-b]pyridin-5-yl)acetic acid], the “CC60 (μM) ** : concentration at 50% cell damage with respect to MT-4 cells” value came to 13.65 µM.

In the case of `CCn1c(C)c(C)c2c(-c3ccccc3)c(C(OC(C)(C)C)C(=O)O)c(C)nc21` (stereo not shown) [Example 37, 2-Tert-butoxy-2-(1-ethyl-2,3,6-trimethyl-4-phenyl-1H-pyrrolo[2,3-b]pyridin-5-yl)acetic acid], the “CC60 (μM) ** : concentration at 50% cell damage with respect to MT-4 cells” value was determined as 17 µM.

Regarding `Cc1nc2c(c(C)c(C)n2CCO)c(-c2ccc(Cl)cc2)c1C(OC(C)(C)C)C(=O)O` (stereo not shown) [Example 24, 2-Tert-butoxy-2-(4-(4-chlorophenyl)-1-(2-hydroxyethyl)-2,3,6-trimethyl-1H-pyrrolo[2,3-b]pyridin-5-yl)acetic acid], the “CC60 (μM) ** : concentration at 50% cell damage with respect to MT-4 cells” value was determined as 75.04 µM.

As to `Cc1nc2c(c(C)c(C)n2CC2(C#N)CC2)c(-c2ccc(Cl)cc2)c1[C@H](OC(C)(C)C)C(=O)O` [Example 47, (S)-2-(tert-butoxy)-2-(4-(4-chlorophenyl)-1-((1-cyanocyclopropyl)methyl)-2,3,6-trimethyl-1H-pyrrolo[2,3-b]pyridin-5-yl)acetic acid], the “CC60 (μM) ** : concentration at 50% cell damage with respect to MT-4 cells” value was determined as 16.64 µM.

On to `Cc1nc2c(c(C)c(C)n2Cc2cncs2)c(-c2ccc(Cl)cc2)c1[C@H](OC(C)(C)C)C(=O)O` [Example 63, (S)-2-(Tert-butoxy)-2-(4-(4-chlorophenyl)-2,3,6-trimethyl-1-(thiazol-5-ylmethyl)-1H-pyrrolo[2,3-b]pyridin-5-yl)acetic acid], for which the “CC60 (μM) ** : concentration at 50% cell damage with respect to MT-4 cells” value was 38.3 µM.

For `Cc1nc2c(c(C)c(C)n2CC(=O)N(C)C)c(-c2ccc(Cl)cc2)c1[C@H](OC(C)(C)C)C(=O)O` [Example 51, (S)-2-(Tert-butoxy)-2-(4-(4-chlorophenyl)-1-(2-(dimethylamino)-2-oxoethyl)-2,3,6-trimethyl-1H-pyrrolo[2,3-b]pyridin-5-yl)acetic acid], the “CC60 (μM) ** : concentration at 50% cell damage with respect to MT-4 cells” value came out at 96.68 µM.

Turning to `Cc1nc2c(c(C)c(C)n2CC2CC2)c(-c2ccc(Cl)cc2)c1C(OC(C)(C)C)C(=O)O` (stereo not shown) [Example 4, 2-Tert-butoxy-2-(4-(4-chlorophenyl)-1-(cyclopropylmethyl)-2,3,6-trimethyl-1H-pyrrolo[2,3-b]pyridin-5-yl)acetic acid], the “CC60 (μM) ** : concentration at 50% cell damage with respect to MT-4 cells” value turned out to be 18 µM.

Turning to `CCn1c(C)c(C)c2c(-c3ccc(Cl)cc3)c([C@H](OC(C)(C)C)C(=O)O)c(C)nc21` [Example 32, (S)-2-Tert-butoxy-2-(4-(4-chlorophenyl)-1-(ethyl)-2,3,6-trimethyl-1H-pyrrolo[2,3-b]pyridin-5-yl)acetic acid], the “CC60 (μM) ** : concentration at 50% cell damage with respect to MT-4 cells” value turned out to be 23.48 µM.

Turning to `CCn1c(C)c(C)c2c(-c3ccc(C)cc3)c(C(OC(C)(C)C)C(=O)O)c(C)nc21` (stereo not shown) [Example 38, 2-Tert-butoxy-2-(1-ethyl-2,3,6-trimethyl-4-(para-tolyl)-1H-pyrrolo[2,3-b]pyridin-5-yl)acetic acid], the “CC60 (μM) ** : concentration at 50% cell damage with respect to MT-4 cells” value was found to be 40.34 µM.

For the compound `Cc1nc2c(c(C)c(C)n2Cc2cc[nH]n2)c(-c2ccc(Cl)cc2)c1[C@H](OC(C)(C)C)C(=O)O` [Example 45, (S)-2-(1-((1H-pyrazol-3-yl)methyl)-4-(4-chlorophenyl)-2,3,6-trimethyl-1H-pyrrolo[2,3-b]pyridin-5-yl)-2-(tert-butoxy)acetic acid], the “CC60 (μM) ** : concentration at 50% cell damage with respect to MT-4 cells” value turned out to be 19.33 µM.

As to `Cc1nc2c(c(C)c(C)n2C)c(-c2ccc(Cl)cc2)c1[C@@H](OC(C)(C)C)C(=O)O` [Example 27, (R)-2-tert-butoxy-2-(4-(4-chlorophenyl)-1,2,3,6-tetramethyl-1H-pyrrolo[2,3-b]pyridin-5-yl)acetic acid], the “CC60 (μM) ** : concentration at 50% cell damage with respect to MT-4 cells” value was 29 µM.

`Cc1nc2c(c(C)c(C)n2CC2(O)CC2)c(-c2ccc(Cl)cc2)c1[C@H](OC(C)(C)C)C(=O)O` [Example 52]: the “CC60 (μM) ** : concentration at 50% cell damage with respect to MT-4 cells” value came to 34.33 µM.

`Cc1nc2c(c(C)c(C)n2Cc2ccncc2)c(-c2ccc(Cl)cc2)c1[C@H](OC(C)(C)C)C(=O)O` [Example 36, (S)-2-Tert-butoxy-2-(4-(4-chlorophenyl)-1-(pyridin-4-ylmethyl)-2,3,6-trimethyl-1H-pyrrolo[2,3-b]pyridin-5-yl)acetic acid]: the “CC60 (μM) ** : concentration at 50% cell damage with respect to MT-4 cells” value amounted to 24.49 µM.
